Measurements published in patent US20230012420A1, “METHODS AND COMPOSTIONS FOR INHIBITING P97” (California Institute of Technology, priority 2021, published 2023).

Legend:
Assay type in all cases: cell-based, human
p97^R155H/+ MNs [1] = experiment: MN cell survival assay (Calcein AM live cell staining); details: 400 nM, treated at 14 dpm for 6 days, read at 20 dpm, vs DMSO (FIG. 5A)
Procedure: The maturation of MNs was followed using a 14 day protocol from BrainXell. Briefly, the MNs were thawed and plated on poly-lysine (Sigma, cat #P7886) coated plates in MN maturation medium containing DMEM/F12 (Gibco, cat #11330-032) and neurobasal medium (1:1 v/v), 2% 50× B27, 1% 100× N2, 0.25% 100× Glutamax, 10 ng/mL BDNF (Peprotech, cat #450-02), 10 ng/mL GDNF(Peprotech, cat #450-10), 1 ng/mL TGF-β1 (Peprotech, cat #100-21c), and 1× Brainfast supplement (BrainXell). The medium was changed with the same medium containing 15 μg/mL geltrex on day 1. An equal volume of maturation medium (excluding Geltrex) was added on day 4. Half of the medium (excluding the Brainfast supplement and Geltrex) was changed twice weekly from day 7. The MNs can be maintained for at least three weeks. […] NMS-873, cat #406458), or same volume of DMSO at D14, and then incubated for 6 days. The cells were harvested on D20. […] Cell viability was monitored every 3 or 4 days by staining with Calcein AM Viability Dye (Thermo, cat #65-0853-81), acquiring and analyzing images with ImageXpress Micro Confocal High-Content Imaging System (Molecular Devices). […] Cell viability was monitored at day 1 and day 14. […]

iso p97^R155H/+ MNs = experiment: MN cell survival assay (live cell staining), isogenic mutant line; details: 100 nM for 6 days, vs DMSO (FIG. 5B)
Procedure: To compare p97 WT and […]/+ cells, MNs were thawed and plated on poly-lysine coated 96-well plates (Greiner, cat #655090) at a density of 1000 cells per 100 μL per well in MN maturation medium as described in the “motor neuron differentiation and maturation” section. Medium was changed with 100 μL of the same medium containing 15 μg/mL geltrex on day 1. 100 μL additional medium (excluding Geltrex) was added on day 4. Half of the medium (excluding the Brainfast supplement and Geltrex) was changed on day 7 and 11. 200 nM Ara-C was added to inhibit non-MN cells from proliferating. On day 14, the medium was replaced with N2 medium (DMEM/F12 and neurobasal medium, 1:1 v/v, 1% 100× N2). N2 medium was changed every six days. Cell viability was monitored every 3 or 4 days by staining with Calcein AM Viability Dye (Thermo, cat #65-0853-81), acquiring and analyzing images with ImageXpress Micro Confocal High-Content Imaging System (Molecular Devices). For p97 inhibitor treatment, MNs were plated on poly-lysine coated 384-well plates (Greiner, cat #781946) at a density of 500 cells per 30 μL per well. The same medium was used for plating and maintaining cells. Cell viability was monitored at day 1 and day 14. […]

p97^R155H/+ MNs [2] = experiment: Western blot of dysregulated protein levels after p97 inhibitor treatment; details: 400 nM for 6 days, 20 dpm (FIG. 5C)
Procedure: The maturation of MNs was followed using a 14 day protocol from BrainXell. Briefly, the MNs were thawed and plated on poly-lysine (Sigma, cat #P7886) coated plates in MN maturation medium containing DMEM/F12 (Gibco, cat #11330-032) and neurobasal medium (1:1 v/v), 2% 50× B27, 1% 100× N2, 0.25% 100× Glutamax, 10 ng/mL BDNF (Peprotech, cat #450-02), 10 ng/mL GDNF(Peprotech, cat #450-10), 1 ng/mL TGF-β1 (Peprotech, cat #100-21c), and 1× Brainfast supplement (BrainXell). The medium was changed with the same medium containing 15 μg/mL geltrex on day 1. An equal volume of maturation medium (excluding Geltrex) was added on day 4. Half of the medium (excluding the Brainfast supplement and Geltrex) was changed twice weekly from day 7. The MNs can be maintained for at least three weeks. […] NMS-873, cat #406458), or same volume of DMSO at D14, and then incubated for 6 days. The cells were harvested on D20. MN cells were scraped off plates, washed with DPBS, and centrifuged at 300 g for 4 min to remove supernatant. Pellets were frozen at −80° C. Pellets were resuspended with 100 lysis buffer (50 mM Tris-HCl pH 8.0, 150 mM NaCl, 1% Triton X-100 with protease inhibitor tablet, 50 μM MG132, and 50 mM NEM), and incubated on ice for 10 min with occasional vortexing. After that, samples were centrifuged at 15000 rpm at 4° C. for 10 min and transferred 90 μL cell lysate into a 1.5 mL tube. Total soluble protein concentrations were measured using the Bradford test (Bio-Rad, cat #5000006). 30 μL 4×Laemmli sample buffer (Bio-Rad, cat #161-0774) was added and samples were boiled for 5 min. An equal amount of protein was loaded and separated using 4-20% Mini-PROTEAN TGX precast gels (Bio-Rad, cat #456-1096) and transferred to nitrocellulose membranes using Trans-Blot Turbo Transfer System (Bio-Rad, cat #170-4155). Membranes were blocked with 1×TBST with 5% w/v nonfat milk, incubated with primary antibodies for 2 h at room temperature or overnight at 4° C., and incubated with HRP-conjugated secondary antibodies (Bio-Rad, 1:3000 dilution) for 2 h at room temperature. […] The blot densities were analyzed using Image Lab 6.0.1 software (Bio-Rad).

p97^R155H/+ MNs [3] = experiment: Proteomic analysis (LC-MS/MS) of D20 MNs after p97 inhibitor treatment; details: for Tau and MCM6 (proteomics): 6 days of treatment, 400 nM; for number of the 440 downregulated proteins that were increased after treatment / number of the 920 upregulated proteins that were reduced after treatment: 6 days, count stated for treatment with CB-5083 or NMS-873 (FIG. 5E)
Procedure: The maturation of MNs was followed using a 14 day protocol from BrainXell. Briefly, the MNs were thawed and plated on poly-lysine (Sigma, cat #P7886) coated plates in MN maturation medium containing DMEM/F12 (Gibco, cat #11330-032) and neurobasal medium (1:1 v/v), 2% 50× B27, 1% 100× N2, 0.25% 100× Glutamax, 10 ng/mL BDNF (Peprotech, cat #450-02), 10 ng/mL GDNF(Peprotech, cat #450-10), 1 ng/mL TGF-β1 (Peprotech, cat #100-21c), and 1× Brainfast supplement (BrainXell). The medium was changed with the same medium containing 15 μg/mL geltrex on day 1. An equal volume of maturation medium (excluding Geltrex) was added on day 4. Half of the medium (excluding the Brainfast supplement and Geltrex) was changed twice weekly from day 7. The MNs can be maintained for at least three weeks. […] NMS-873, cat #406458), or same volume of DMSO at D14, and then incubated for 6 days. The cells were harvested on D20. After culture, MN cells were scraped off the plates, washed with DPBS, and centrifuged at 300 g for 4 min to remove supernatant. Pellets were frozen at -80° C. The mass spec samples were prepared by following instructions for the […] Sample Prep Kit (Thermo Scientific, cat #A4006). Samples were dried using a vacuum centrifuge and resuspended in 0.1% formic acid (Thermo, cat #85178) water solution. Peptide concentrations were measured using the Quantitative Fluorometric Peptide Assay kit (Thermo, cat #23290). LC-MS/MS experiments were performed by loading 0.5 μg sample onto an EASY-nLC 1000 (Thermo Scientific) connected to an Orbitrap Eclipse Tribrid mass spectrometer (Thermo Scientific). Peptides were separated on an Aurora UHPLC Column (25 cm×75 μm, 1.6 μm C18, AUR2-25075C18A, Ion Opticks) with a flow rate of 0.4 μL/min and a total duration time of 131 min following the gradient composed of 3% Solvent B for 1 min, 3-19% B for 72 min, 19-29% B for 28 min, 29-41% B for 20 min, 41-95% B for 3 min, and 95-98% B for 7 min. Solvent A consists of 97.8% H2O, 2% ACN, and 0.2% formic acid; solvent B consists of 19.8% H2O, 80% ACN, and 0.2% formic acid. MS1 scans were acquired with a range of 400-1600 m/z in the Orbitrap at 120 k resolution. The maximum injection time was 50 ms, and the AGC target was 2×105. The filter dynamic exclusion was set to exclude after 1 time, 30 s duration, and 10 ppm mass tolerance. MS2 scans were acquired with quadrupole isolation mode and higher-energy collisional dissociation (HCD) activation type in the Iontrap. The isolation window was 1.4 m/z, collision energy was 35%, maximum injection time was 35 ms, and the AGC target was 1×104. Other global settings were as below: ion source type, NSI; spray voltage, positive ion 2400 V, negative ion 600 V; ion transfer tube temperature, 300° C. Method modifications and data collection were performed using Xcalibur software (Thermo Scientific). Proteomic analysis was performed using Proteome Discoverer 2.4 (Thermo Scientific) software with the Uniprot human database and the SequestHT with Percolator validation. Protein abundance normalization was performed on total peptide. The data exported from PD2.4 were then used for further analysis. Limma analysis was performed using R studio following the user guide (Gordon, 2020). The volcano figures were plotted using Origin 2019b. PCA analyses were generated with PD2.4 and plotted using Prism 7. The Venn diagram was performed using FunRich 3.1. The heatmap figure was performed with prism 7. Functional enrichment analyses were performed with g:Profiler (Raudvere, 2019). The bubble plot was generated using Origin 2019b.

Cc1cc(OCc2nnc(SC3CCCC3)n2-c2cccnc2)ccc1-c1ccc(S(C)(=O)=O)cc1 [NMS-873, 3-[3-cyclopentylsulfanyl-5-[[3-methyl-4-(4-methylsulfonylphenyl)phenoxy]methyl]-1,2,4-triazol-4-yl]pyridine]
loss of MNs (neuron loss, live cell staining) (p97^R155H/+ MNs [1]): significantly reduced the loss of MNs
loss of MNs (neuron loss, live cell staining) (iso p97^R155H/+ MNs): significantly reduced the loss of MNs
LC3 level (western blot) (p97^R155H/+ MNs [2]): slightly elevated
protein levels of ISL1, NES, Tau, pTau, MCM6, p53, y-H2Ax (western blot) (p97^R155H/+ MNs [2]): reversed increases
Tau and MCM6 (proteomics) (p97^R155H/+ MNs [3]): reduced
number of the 440 downregulated proteins that were increased after treatment (p97^R155H/+ MNs [3]): 192
number of the 920 upregulated proteins that were reduced after treatment (p97^R155H/+ MNs [3]): 428

Cc1cc2c(C(N)=O)cccc2n1-c1nc2c(c(NCc3ccccc3)n1)COCC2 [CB-5083]
loss of MNs (neuron loss, live cell staining) (p97^R155H/+ MNs [1]): significantly reduced the loss of MNs
loss of MNs (neuron loss, live cell staining) (iso p97^R155H/+ MNs): significantly reduced the loss of MNs
LC3 level (western blot) (p97^R155H/+ MNs [2]): slightly elevated
protein levels of ISL1, NES, Tau, pTau, MCM6, p53, y-H2Ax (western blot) (p97^R155H/+ MNs [2]): reversed increases
Tau and MCM6 (proteomics) (p97^R155H/+ MNs [3]): reduced
number of the 440 downregulated proteins that were increased after treatment (p97^R155H/+ MNs [3]): 192
number of the 920 upregulated proteins that were reduced after treatment (p97^R155H/+ MNs [3]): 428
